In patent EP4745137A1 (Gluetacs Therapeutics (Shanghai) Co., Ltd., priority 2023, dated 2025):
Where two headings read alike, the source gives them in different places.

Key:
[1] = test system: NCI-H1975; assay: Tumor cell proliferation inhibition (CellTiter-Meiluncell Luminescent Cell Viability Assay), NCI-H1975; details: Homo sapiens, NCI-H1975, 96 h, read-out: inhibitory activity (IC50, nM) against tumor cells proliferation, H1975
[2] = test system: Vcap; assay: Tumor cell proliferation inhibition (CellTiter-Meiluncell Luminescent Cell Viability Assay), Vcap; details: Homo sapiens, 96 h, read-out: inhibitory activity (IC50, nM) against tumor cells proliferation, Vcap
[3] = test system: SR; assay: Tumor cell proliferation inhibition (CellTiter-Meiluncell Luminescent Cell Viability Assay), SR; details: Homo sapiens, 96 h, read-out: inhibitory activity (IC50, nM) against tumor cells proliferation, SR
Procedure: (§1) The tumor cells used herein were cultured in a cell culture medium listed in table 2 at 37°C in an incubator with 5% CO2. Prior to experimentation, all cell lines used were correctly identified by STR profiling, and tested negative for mycoplasma contamination using a mycoplasma detection kit through routine screenings.
(§2) On the following day, the test compounds of the present disclosure were subjected to serial dilution. […] Subsequently, 0.5 µL of the test compound dilution was transferred into the 96-well plate containing the cells, with each well containing 100 µL of cell culture medium. […] Into the 96-well plate, the diluted test compounds and corresponding detection reagents were added, resulting in final test compound concentrations of 500 nM and 10 nM, respectively.
(§3) After the cells were treated with the compounds of the present disclosure for a specified period (the treatment durations were shown in Table 3), the cell viability assay reagent was added to the culture medium according to the kit's instructions to determine cell viability. […] All controls were treated using the same procedure as the compounds of the present disclosure. The growth inhibition curves for the compounds of the present disclosure were plotted using Prism GraphPad software, and the IC50 values were calculated therefrom.

[4] = biological target: T1, IKZF1 (Homo sapiens, UniProt Q13422+Q96SW2); assay: Western-blot assay of substrate protein degradation in hPBMCs, IKZF1; type: cell-based; details: 24 hours of compound treatment, compounds tested at 50 nM and 500 nM (concentration of the table not stated)
T1 construct: endogenous in cells; host or cells: hPBMCs (Milecell Biotechnologies)

[5] = test system: Human breast cancer cells (MDA-MB-231); assay: Tumor cell proliferation inhibition (CellTiter-Meiluncell Luminescent Cell Viability Assay), MDA-MB-231; details: MDA-MB-231, 96 h, read-out: inhibitory activity (IC50, nM) against tumor cells proliferation, MDA-MB-231
[6] = test system: CCRF-CEM; assay: Tumor cell proliferation inhibition (CellTiter-Meiluncell Luminescent Cell Viability Assay), CCRF-CEM; details: Homo sapiens, 96 h, read-out: inhibitory activity (IC50, nM) against tumor cells proliferation, CCRF-CEM
[7] = biological target: T2, GSPT1 (Homo sapiens, UniProt P15170+Q96SW2); assay: Western-blot assay of substrate protein degradation in hPBMCs, GSPT1; type: cell-based; details: 24 hours of compound treatment, compounds tested at 50 nM and 500 nM (concentration of the table not stated)
T2 construct: endogenous in cells; host or cells: hPBMCs (Milecell Biotechnologies)
T2 sequence (P15170 whole entry): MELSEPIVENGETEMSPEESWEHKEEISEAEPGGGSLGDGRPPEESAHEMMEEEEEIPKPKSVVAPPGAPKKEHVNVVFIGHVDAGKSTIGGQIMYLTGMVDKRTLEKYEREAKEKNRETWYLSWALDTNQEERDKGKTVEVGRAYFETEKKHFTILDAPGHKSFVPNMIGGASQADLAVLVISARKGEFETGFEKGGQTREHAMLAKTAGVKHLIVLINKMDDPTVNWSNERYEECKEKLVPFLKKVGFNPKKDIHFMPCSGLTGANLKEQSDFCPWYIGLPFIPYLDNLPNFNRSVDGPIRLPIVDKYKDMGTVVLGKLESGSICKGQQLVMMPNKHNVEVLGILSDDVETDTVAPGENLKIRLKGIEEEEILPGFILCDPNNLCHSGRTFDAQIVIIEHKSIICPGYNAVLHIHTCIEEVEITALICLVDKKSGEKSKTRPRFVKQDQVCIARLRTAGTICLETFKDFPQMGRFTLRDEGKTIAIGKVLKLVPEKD
T2 sequence (Q96SW2 whole entry): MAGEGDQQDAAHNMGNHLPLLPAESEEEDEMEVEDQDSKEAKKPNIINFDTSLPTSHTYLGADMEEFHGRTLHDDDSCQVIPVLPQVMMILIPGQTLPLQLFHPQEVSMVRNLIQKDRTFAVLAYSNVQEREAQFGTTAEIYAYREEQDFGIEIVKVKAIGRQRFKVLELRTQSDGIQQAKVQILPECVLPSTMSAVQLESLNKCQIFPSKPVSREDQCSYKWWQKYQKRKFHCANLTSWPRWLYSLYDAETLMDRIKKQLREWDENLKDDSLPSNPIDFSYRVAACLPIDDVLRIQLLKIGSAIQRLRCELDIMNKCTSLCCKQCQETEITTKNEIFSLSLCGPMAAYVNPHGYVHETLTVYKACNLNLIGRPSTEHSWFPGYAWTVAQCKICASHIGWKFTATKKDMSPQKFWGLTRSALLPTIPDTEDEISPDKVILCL
T2 sequence (Q16531 whole entry partner): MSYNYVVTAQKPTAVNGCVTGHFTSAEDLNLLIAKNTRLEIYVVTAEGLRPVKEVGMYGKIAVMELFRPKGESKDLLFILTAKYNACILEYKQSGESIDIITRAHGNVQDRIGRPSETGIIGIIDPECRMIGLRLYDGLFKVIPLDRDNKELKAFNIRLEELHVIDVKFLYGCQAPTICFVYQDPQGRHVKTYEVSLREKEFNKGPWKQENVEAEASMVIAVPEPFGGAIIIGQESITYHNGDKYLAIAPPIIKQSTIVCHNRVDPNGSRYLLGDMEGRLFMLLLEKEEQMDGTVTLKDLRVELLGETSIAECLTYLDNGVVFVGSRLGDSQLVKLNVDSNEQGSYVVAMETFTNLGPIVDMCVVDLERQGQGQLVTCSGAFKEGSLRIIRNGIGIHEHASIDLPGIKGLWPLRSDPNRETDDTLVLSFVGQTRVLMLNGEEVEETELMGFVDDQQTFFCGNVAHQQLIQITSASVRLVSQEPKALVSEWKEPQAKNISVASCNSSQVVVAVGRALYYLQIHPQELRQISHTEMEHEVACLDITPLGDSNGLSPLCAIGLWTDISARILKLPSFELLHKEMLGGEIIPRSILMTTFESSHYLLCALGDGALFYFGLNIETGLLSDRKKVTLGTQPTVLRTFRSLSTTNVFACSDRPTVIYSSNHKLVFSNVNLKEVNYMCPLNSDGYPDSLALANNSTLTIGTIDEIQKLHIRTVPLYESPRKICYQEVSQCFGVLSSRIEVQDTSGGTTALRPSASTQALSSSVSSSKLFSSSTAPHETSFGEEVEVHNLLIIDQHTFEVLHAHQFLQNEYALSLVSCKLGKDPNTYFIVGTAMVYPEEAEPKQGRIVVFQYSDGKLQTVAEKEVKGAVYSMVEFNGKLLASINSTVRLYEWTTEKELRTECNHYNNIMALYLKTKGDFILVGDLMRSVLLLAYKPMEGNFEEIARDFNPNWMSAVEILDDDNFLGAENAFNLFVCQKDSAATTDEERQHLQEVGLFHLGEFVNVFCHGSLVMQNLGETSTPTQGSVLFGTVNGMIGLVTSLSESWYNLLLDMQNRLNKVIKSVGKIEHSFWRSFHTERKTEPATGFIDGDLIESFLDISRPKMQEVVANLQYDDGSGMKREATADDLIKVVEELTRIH

[8] = biological target: T3, IKZF3 (Homo sapiens, UniProt Q96SW2+Q9UKT9); assay: Western-blot assay of substrate protein degradation in hPBMCs, IKZF3; type: cell-based; details: 24 hours of compound treatment, compounds tested at 50 nM and 500 nM (concentration of the table not stated)
T3 construct: endogenous in cells; host or cells: hPBMCs (Milecell Biotechnologies)
T3 sequence (Q9UKT9 whole entry): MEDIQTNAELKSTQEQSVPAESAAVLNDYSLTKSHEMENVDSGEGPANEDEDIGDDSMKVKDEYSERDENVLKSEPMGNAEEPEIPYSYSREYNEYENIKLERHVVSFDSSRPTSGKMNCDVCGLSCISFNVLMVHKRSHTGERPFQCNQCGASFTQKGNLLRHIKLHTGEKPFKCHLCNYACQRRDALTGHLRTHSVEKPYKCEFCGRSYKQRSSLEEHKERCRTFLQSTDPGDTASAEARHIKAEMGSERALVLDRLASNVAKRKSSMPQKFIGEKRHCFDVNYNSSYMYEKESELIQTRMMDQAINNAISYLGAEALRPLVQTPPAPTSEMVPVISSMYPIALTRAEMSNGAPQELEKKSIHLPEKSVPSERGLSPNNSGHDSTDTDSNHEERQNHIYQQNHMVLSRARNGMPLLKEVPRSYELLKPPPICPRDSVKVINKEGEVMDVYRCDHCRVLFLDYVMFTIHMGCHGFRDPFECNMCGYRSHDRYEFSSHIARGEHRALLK
T3 sequence (Q96SW2 whole entry): as the sequence (Q96SW2 whole entry) above
T3 sequence (Q16531 whole entry partner): as the sequence (Q16531 whole entry partner) above

[9] = test system: Human acute T lymphocytic leukemia cells (Molt-4); assay: Tumor cell proliferation inhibition (CellTiter-Meiluncell Luminescent Cell Viability Assay), Molt-4; details: MOLT-4, 96 h, read-out: inhibitory activity (IC50, nM) against tumor cells proliferation, Molt 4
[10] = test system: MGC803; assay: Tumor cell proliferation inhibition (CellTiter-Meiluncell Luminescent Cell Viability Assay), MGC803; details: Homo sapiens, MGC-803, 96 h, read-out: inhibitory activity (IC50, nM) against tumor cells proliferation, MGC803
Procedure: as §1, §2, §3

[11] = biological target: T4, WEE1 (Homo sapiens, UniProt P30291+Q96SW2); assay: Western-blot assay of substrate protein degradation in hPBMCs, WEE1; type: cell-based; details: 24 hours of compound treatment, compounds tested at 50 nM and 500 nM (concentration of the table not stated)
T4 construct: endogenous in cells; host or cells: hPBMCs (Milecell Biotechnologies)
T4 sequence (P30291 whole entry): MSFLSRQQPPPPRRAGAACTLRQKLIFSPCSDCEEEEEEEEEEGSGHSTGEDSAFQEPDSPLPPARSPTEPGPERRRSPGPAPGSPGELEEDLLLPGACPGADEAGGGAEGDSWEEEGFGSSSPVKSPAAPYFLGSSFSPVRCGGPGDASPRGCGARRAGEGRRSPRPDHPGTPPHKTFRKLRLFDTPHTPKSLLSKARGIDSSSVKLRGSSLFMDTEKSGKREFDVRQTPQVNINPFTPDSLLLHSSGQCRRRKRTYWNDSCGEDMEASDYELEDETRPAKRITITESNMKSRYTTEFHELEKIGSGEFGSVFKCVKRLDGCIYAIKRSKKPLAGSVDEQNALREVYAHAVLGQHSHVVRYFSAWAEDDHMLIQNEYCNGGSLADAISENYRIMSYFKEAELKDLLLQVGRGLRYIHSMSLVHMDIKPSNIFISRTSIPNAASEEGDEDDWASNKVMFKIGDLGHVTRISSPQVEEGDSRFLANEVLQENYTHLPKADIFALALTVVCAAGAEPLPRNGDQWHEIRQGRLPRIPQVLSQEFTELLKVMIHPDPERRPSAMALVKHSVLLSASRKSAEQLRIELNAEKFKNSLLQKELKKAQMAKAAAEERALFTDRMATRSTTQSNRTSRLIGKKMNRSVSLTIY
T4 sequence (Q96SW2 whole entry): as the sequence (Q96SW2 whole entry) above
T4 sequence (Q16531 whole entry partner): as the sequence (Q16531 whole entry partner) above

[12] = biological target: T5, CK1α (Homo sapiens, UniProt P48729+Q96SW2); assay: Western-blot assay of substrate protein degradation in hPBMCs, CK1α; type: cell-based; details: 24 hours of compound treatment, compounds tested at 50 nM and 500 nM (concentration of the table not stated)
T5 construct: endogenous in cells; host or cells: hPBMCs (Milecell Biotechnologies)
T5 sequence (P48729 whole entry): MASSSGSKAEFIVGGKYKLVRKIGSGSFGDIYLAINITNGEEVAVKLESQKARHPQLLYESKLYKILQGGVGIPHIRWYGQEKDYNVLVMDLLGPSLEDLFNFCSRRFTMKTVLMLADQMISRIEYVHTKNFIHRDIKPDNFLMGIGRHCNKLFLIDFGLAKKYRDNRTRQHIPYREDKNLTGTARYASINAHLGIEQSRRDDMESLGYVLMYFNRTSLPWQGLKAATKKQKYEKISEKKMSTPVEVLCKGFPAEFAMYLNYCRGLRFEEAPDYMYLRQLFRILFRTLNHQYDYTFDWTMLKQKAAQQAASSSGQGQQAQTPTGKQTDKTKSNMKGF
T5 sequence (Q96SW2 whole entry): as the sequence (Q96SW2 whole entry) above
T5 sequence (Q16531 whole entry partner): as the sequence (Q16531 whole entry partner) above

[13] = test system: MM.1R; assay: Tumor cell proliferation inhibition (CellTiter-Meiluncell Luminescent Cell Viability Assay), MM.1R; details: Homo sapiens, 96 h, read-out: inhibitory activity (IC50, nM) against tumor cells proliferation, MM.1R
[14] = biological target: T6, IKZF2 (Homo sapiens, UniProt Q96SW2+Q9UKS7); assay: Western-blot assay of substrate protein degradation in hPBMCs, IKZF2; type: cell-based; details: 24 hours of compound treatment, compounds tested at 50 nM and 500 nM (concentration of the table not stated)
T6 construct: endogenous in cells; host or cells: hPBMCs (Milecell Biotechnologies)
T6 sequence (Q9UKS7 whole entry): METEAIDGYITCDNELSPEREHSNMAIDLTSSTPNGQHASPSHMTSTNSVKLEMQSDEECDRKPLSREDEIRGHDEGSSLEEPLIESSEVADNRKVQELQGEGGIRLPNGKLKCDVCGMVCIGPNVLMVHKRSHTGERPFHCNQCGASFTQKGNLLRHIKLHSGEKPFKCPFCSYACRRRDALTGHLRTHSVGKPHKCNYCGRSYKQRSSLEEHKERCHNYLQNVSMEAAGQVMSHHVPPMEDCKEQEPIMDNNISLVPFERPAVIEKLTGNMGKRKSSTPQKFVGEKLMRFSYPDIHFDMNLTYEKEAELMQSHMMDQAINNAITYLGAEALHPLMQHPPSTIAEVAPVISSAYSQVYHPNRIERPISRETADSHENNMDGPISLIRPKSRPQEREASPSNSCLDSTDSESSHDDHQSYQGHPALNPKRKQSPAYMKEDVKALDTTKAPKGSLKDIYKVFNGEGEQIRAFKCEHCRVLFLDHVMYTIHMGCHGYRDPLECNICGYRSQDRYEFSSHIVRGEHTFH
T6 sequence (Q96SW2 whole entry): as the sequence (Q96SW2 whole entry) above
T6 sequence (Q16531 whole entry partner): as the sequence (Q16531 whole entry partner) above

[15] = test system: SW620; assay: Tumor cell proliferation inhibition (CellTiter-Meiluncell Luminescent Cell Viability Assay), SW620; details: Homo sapiens, SW-620, 96 h, read-out: inhibitory activity (IC50, nM) against tumor cells proliferation, SW620
[16] = biological target: T7, human Cereblon WT GST-tagged protein (Homo sapiens, UniProt Q96SW2); assay: CRBN-binding affinity by HTRF (CEREBLON BINDING kit)
T7 construct: purchased CISBIO 64BDCRBNPEH
T7 sequence (Q96SW2 whole entry): as the sequence (Q96SW2 whole entry) above

[17] = test system: Jurkat; assay: Tumor cell proliferation inhibition (CellTiter-Meiluncell Luminescent Cell Viability Assay), Jurkat; details: Homo sapiens, 96 h, read-out: inhibitory activity (IC50, nM) against tumor cells proliferation, Jurkat
[18] = test system: CAL-62; assay: Tumor cell proliferation inhibition (CellTiter-Meiluncell Luminescent Cell Viability Assay), CAL-62; details: Homo sapiens, CAL-62, 96 h, read-out: inhibitory activity (IC50, nM) against tumor cells proliferation, CAL-62
[19] = HTRF inhibitory activity, CEREBLON BINDING kit; read-out: HTRF IC50

IC50 [1] [nM]	IC50 [2] [nM]	IC50 [3] [nM]	IC50 [5] [nM]	IC50 [6] [nM]	IC50 [9] [nM]	IC50 [10] [nM]	IC50 [13] [nM]	IC50 [15] [nM]	IC50 [17] [nM]	IC50 [18] [nM]	IC50 [16, 19] [µM]	SMILES	IKZF 1 substrate protein remaining % [4]	GSPT1 substrate protein remaining % [7]	IKZF3 substrate protein remaining % [8]	Weel substrate protein remaining % [11]	CK1a substrate protein remaining % [12]	IKZF2 substrate protein remaining % [14]	IC50 ([16]; read-out: HTRF IC50; HTRF inhibitory activity, CEREBLON BINDING kit) [µM]
50 to 100	10 to 50	100 to 500	50 to 100	1 to 5	10 to 50	50 to 100	5 to 10	50 to 100	1 to 5	5 to 10	0.5 to 1	O=C1CCC(N2Cc3cc(CN4CCN(c5ccc(Cl)cn5)CC4)ccc3C2=O)C(=O)N1 (stereo not drawn) [GT-04431, 3-(5-((4-(5-chloropyridin-2-yl)piperazin-1-yl)methyl)-1-oxoisoindolin-2-yl)piperidine-2,6-dione]	A (0% ≤ substrate protein remaining % ≤ 80%)	A (0% ≤ substrate protein remaining % ≤ 80%)	A (0% ≤ substrate protein remaining % ≤ 80%)	A (0% ≤ substrate protein remaining % ≤ 80%)	A (0% ≤ substrate protein remaining % ≤ 80%)	A (0% ≤ substrate protein remaining % ≤ 80%)	–
50 to 100	10 to 50	100 to 500	100 to 500	5 to 10	1 to 5	100 to 500	5 to 10	50 to 100	1 to 5	5 to 10	0.5 to 1	O=C1CCC(N2Cc3cc(CN4CCN(c5ccccc5)CC4)ccc3C2=O)C(=O)N1 (stereo not drawn) [GT-04446, 3-(1-oxo-5-((4-phenylpiperazin-1-yl)methyl)isoindolin-2-yl)piperidine-2,6-dione]	A (0% ≤ substrate protein remaining % ≤ 80%)	A (0% ≤ substrate protein remaining % ≤ 80%)	A (0% ≤ substrate protein remaining % ≤ 80%)	A (0% ≤ substrate protein remaining % ≤ 80%)	A (0% ≤ substrate protein remaining % ≤ 80%)	A (0% ≤ substrate protein remaining % ≤ 80%)	–
100 to 500	50 to 100	500 to 1000	100 to 500	5 to 10	10 to 50	100 to 500	10 to 50	100 to 500	5 to 10	10 to 50	1 to 1.5	O=C1CCC(N2Cc3cc(CN4CCN(c5ccc(F)cc5)CC4)ccc3C2=O)C(=O)N1 (stereo not drawn) [GT-04453, 3-(5-((4-(4-fluorophenyl)piperazin-1-yl)methyl)-1-oxoisoindolin-2-yl)piperidine-2,6-dione]	A (0% ≤ substrate protein remaining % ≤ 80%)	A (0% ≤ substrate protein remaining % ≤ 80%)	A (0% ≤ substrate protein remaining % ≤ 80%)	A (0% ≤ substrate protein remaining % ≤ 80%)	A (0% ≤ substrate protein remaining % ≤ 80%)	A (0% ≤ substrate protein remaining % ≤ 80%)	–

More lines, now with the values behind:

SMILES	IC50 [1] [nM]	IC50 [2] [nM]	IC50 [3] [nM]	IC50 [5] [nM]	IC50 [6] [nM]	IC50 [9] [nM]	IC50 [10] [nM]	IC50 [13] [nM]	IC50 [15] [nM]	IC50 [17] [nM]	IC50 [18] [nM]	IC50 [16, 19] [µM]	IKZF 1 substrate protein remaining % [4]	GSPT1 substrate protein remaining % [7]	IKZF3 substrate protein remaining % [8]	Weel substrate protein remaining % [11]	CK1a substrate protein remaining % [12]	IKZF2 substrate protein remaining % [14]	IC50 ([16]; read-out: HTRF IC50; HTRF inhibitory activity, CEREBLON BINDING kit) [µM]
O=C1CCC(N2Cc3cc(CN4CCN(c5ccc(Br)cc5)CC4)ccc3C2=O)C(=O)N1 (stereo not drawn)	100 to 500	10 to 50	100 to 500	100 to 500	5 to 10	5 to 10	100 to 500	5 to 10	100 to 500	1 to 5	10 to 50	–	B (80%< substrate protein remaining %≤ 100%)	A (0% ≤ substrate protein remaining % ≤ 80%)	B (80%< substrate protein remaining %≤ 100%)	B (80%< substrate protein remaining %≤ 100%)	A (0% ≤ substrate protein remaining % ≤ 80%)	B (80%< substrate protein remaining %≤ 100%)	0.5 to 1
O=C1CCC(N2Cc3cc(CN4CCN(c5ccc(Cl)c(Cl)c5)CC4)ccc3C2=O)C(=O)N1 (stereo not drawn) [GT-04437, 3-(5-((4-(3,4-dichlorophenyl)piperazin-1-yl)methyl)-1-oxoisoindolin-2-yl)piperidine-2,6-dione]	50 to 100	10 to 50	100 to 500	100 to 500	5 to 10	1 to 5	50 to 100	5 to 10	50 to 100	1 to 5	10 to 50	0.5 to 1	A (0% ≤ substrate protein remaining % ≤ 80%)	A (0% ≤ substrate protein remaining % ≤ 80%)	A (0% ≤ substrate protein remaining % ≤ 80%)	A (0% ≤ substrate protein remaining % ≤ 80%)	A (0% ≤ substrate protein remaining % ≤ 80%)	A (0% ≤ substrate protein remaining % ≤ 80%)	–
O=C1CCC(N2Cc3cc(CN4CCN(c5cccc(F)c5)CC4)ccc3C2=O)C(=O)N1 (stereo not drawn) [GT-04452, 3-(5-((4-(3-fluorophenyl)piperazin-1-yl)methyl)-1-oxoisoindolin-2-yl)piperidine-2,6-dione]	100 to 500	10 to 50	100 to 500	100 to 500	5 to 10	5 to 10	100 to 500	10 to 50	100 to 500	5 to 10	10 to 50	0.5 to 1	B (80%< substrate protein remaining %≤ 100%)	A (0% ≤ substrate protein remaining % ≤ 80%)	B (80%< substrate protein remaining %≤ 100%)	A (0% ≤ substrate protein remaining % ≤ 80%)	A (0% ≤ substrate protein remaining % ≤ 80%)	B (80%< substrate protein remaining %≤ 100%)	–
O=C1CCC(N2Cc3cc(CN4CCN(c5ccccc5Cl)CC4)ccc3C2=O)C(=O)N1 (stereo not drawn) [GT-04454, 3-(5-((4-(2-chlorophenyl)piperazin-1-yl)methyl)-1-oxoisoindolin-2-yl)piperidine-2,6-dione]	100 to 500	10 to 50	100 to 500	100 to 500	10 to 50	10 to 50	100 to 500	10 to 50	100 to 500	5 to 10	10 to 50	0.5 to 1	A (0% ≤ substrate protein remaining % ≤ 80%)	A (0% ≤ substrate protein remaining % ≤ 80%)	A (0% ≤ substrate protein remaining % ≤ 80%)	A (0% ≤ substrate protein remaining % ≤ 80%)	A (0% ≤ substrate protein remaining % ≤ 80%)	A (0% ≤ substrate protein remaining % ≤ 80%)	–
